Data set [1] relates to cultured bovine parathyroid cells. The settings on record: cited from earlier work.
Data set [2] has as its system serum PTH. Conditions: uremic dogs; cited from earlier work.
Data set [3] has as its system serum PTH. Conditions: uremic rats; cited from earlier work.
Data set [4] concerns PTH. The experiment in a line: Phase 2B double-blind, randomized, placebo-controlled study in hemodialysis patients: efficacy (serum iPTH). The format is in vivo, human. Here is the method: FIG. 3. Study schema for study participants. Participants discontinued use of the active vitamin D analogue (AVD) and cinacalcet (if applicable) prior to a washout period and subsequent administration of placebo or DP001 (440 ng, 3×/wk, for up to 12 weeks).
FIG. 6. Percentage of subjects achieving primary endpoint of two consecutive ≧30% decrease from his/her averaged baseline iPHT level during the 12-week treatment period. Pre-dialysis serum iPTH levels were measured using the Access Intact iPTH Assay from Beckman Coulter (p<0.0001, Fisher's exact test).
FIG. 7. Secondary efficacy endpoint as measured as the mean percentage change in serum iPTH from the averaged baseline value to the average of the last 2 on-treatment values. Data are presented as mean±SEM. p<0.0001, One-way ANOVA.
(§1) Subjects were administered DP001 (2MD) or placebo accordingly the study schema of FIG. 3. Subject disposition is illustrated in FIG. 4. As indicated, 129 subject were screened. Of these, 62 were enrolled and 67 were screen failures. Of the 62 enrollees, 28 were administered a placebo and 34 were administered DP001 (440 ng, 3×/wk for up to 12 weeks). Of the 28 enrollees who were administered the placebo, 22 completed the 12 week study and 6 discontinued for reasons illustrated. Of the 34 enrollees who were administered DP001, 31 completed the 12 week study and 3 discontinued for reasons illustrated.
The Primary Efficacy Endpoint was the proportion of subjects who achieved two consecutive ≧30% decrease from his/her Averaged Baseline iPTH level during the 12-week treatment period. (See FIG. 6). Pre-dialysis serum iPTH levels were measured using the Access Intact iPTH Assay from Beckman Coulter (p<0.0001, Fisher's exact test).
The secondary efficacy endpoint was the mean percentage change in serum iPTH from the Averaged Baseline value to the average of the last 2 on-treatment values. Data are presented in FIG. 7 as mean±SEM. p<0.0001, One-way ANOVA.

Data set [5] in a line: Phase 2B double-blind, randomized, placebo-controlled study in hemodialysis patients: safety. The format is in vivo, human. As to the method:
FIG. 9. Study enrollees exceeding safety threshold values for iPTH, Ca, and P.
FIG. 10. Number of adverse events (AEs) and serious adverse events (SAEs) for study enrollees.
as §1
The remaining 8 subjects were only dose-adjusted downward, indicating a starting dose lower than 440 ng would have been sufficient to suppress PTH. […] Only one patient receiving DP001 (2MD) had two consecutive corrected serum calcium values>10.5 mg/dL.

Data set [6] has as its system PTH. The experiment in a line: Phase 2A open-label dose-ranging study of DP001 in hemodialysis patients. The format is in vivo, human. Conditions: dialysis patients, orally 3 times weekly for 4 weeks. As to the method:
FIG. 1. Change in plasma iPTH (%) versus concentration of DP001 (2MD). Chronic kidney disease—stage 5 patients were given DP001 at the indicated dose orally 3 times weekly for 4 weeks. Data are presented as mean±SEM. Plasma iPTH levels were measured using the Immulite Intact iPTH Assay from Siemens Healthcare Diagnostics.
FIG. 2. Safety parameter versus concentration of DP001 (2MD) for patients of FIG. 1. Data are presented as mean (standard deviation (SD)).
A Phase 2A, open-label, dose-ranging study of DP001 in hemodialysis patients was conducted to determine a starting dose of DP001 for the Phase 2B, randomized, placebo-controlled study described in this Example. […] (See FIGS. 1 and 2). Based on the results in FIGS. 1 and 2, an efficacious and safe starting dose of 440 ng was chosen. Data are presented as mean±SEM. Plasma iPTH levels were measured using the Immulite Intact iPTH Assay from Siemens Healthcare Diagnostics.

The test system of data set [7] is MRL/lpr mouse model of systemic lupus erythematosus. The settings on record: cited from earlier work.

The structures appear in SMILES notation. Entries after “also recorded” stand apart in the source; their conditions may differ. Where two headings read alike, the source gives them in different places.

Take `C=C1/C(=C\C=C2/CCC[C@]3(C)C([C@H](C)CC#CC(C)(C)O)=CC[C@@H]23)C[C@@H](O)C[C@@H]1O` [1,25-(OH)2-16-ene-23-yne-D3]: the “suppression of PTH secretion relative to calcitriol” value in data set [1] is given as “nearly as effective as calcitriol”.

For `C=C1C(=CC=C2CCCC3(C)C2CCC3C(C)CCCCCC(C)(C)O)CC(O)CC1O` (stereo not shown) [1,25-(OH)2-24-dihomo-D3], in data set [1], the “suppression of PTH secretion relative to calcitriol” value is on record as “nearly as effective as calcitriol”.

On to `C=C1C(=CC=C2CCCC3(C)C2CCC3C(C)C=CCCCCC(C)(C)O)CC(O)CC1O` (stereo not shown) [1,25-(OH)2-24-trihomo-22-ene-D3], for which, in data set [1], the “suppression of PTH secretion relative to calcitriol” value is on record as “nearly as effective as calcitriol”.

For the compound `C=C1/C(=C\C=C2/CCC[C@]3(C)[C@@H]([C@H](C)OCCC(C)(C)O)CC[C@@H]23)C[C@@H](O)C[C@@H]1O` [22-oxacalcitriol], the “suppression of serum PTH” value in the data set on serum PTH [2] and with serum PTH [3] was “suppress serum PTH” throughout. The “suppression of PTH secretion relative to calcitriol” value in data set [1] is “nearly as effective as calcitriol”.

Take `C=C1[C@H](O)CC(=C/C=C2\CCC[C@@]3(C)C2CCC3[C@@H](C)CCCC(C)(C)O)C[C@H]1O` (stereo partly drawn) [DP001, 2-methylene-19-nor-(20S)-1α,25-dihydroxyvitamin D3]: in the data set on PTH [4] (CKD-5D, 3x weekly oral, starting dose 440 ng, 12-week treatment, p<0.0001), the “subjects achieving primary endpoint (two consecutive ≧30% decrease from averaged baseline iPTH)” value is given as 78 % of subjects. Also, in the data set on PTH [4] (CKD-5D, 3x weekly oral, starting dose 440 ng, by 12 weeks, p<0.0001), the “reduction of serum iPTH (secondary endpoint: mean percentage change from averaged baseline)” value stood at 46%. Moreover, the “PTH lowering in subjects previously treated with AVD and cinacalcet (calcimimetic)” value in the data set with PTH [4] (DP001 alone, CKD-5D patients previously on cinacalcet) is given as “effectively reduced PTH levels; also recorded: successfully treats SHPT in patients previously taking a calcimimetic”. For the same compound, in data set [5] (12-week treatment), the serum calcium values result is recorded as “remained in the normal range”. For the same compound, the “patients with two consecutive corrected serum calcium values >10.5 mg/dL” value in data set [5] (34 enrollees on DP001) is recorded as “one”. Further, the “subjects that reached the safety threshold for PTH” value in data set [5] (34 enrollees on DP001, 440 ng 3x/wk up to 12 weeks) turned out to be 14 subjects. Besides, the “adverse event reporting versus placebo” value in data set [5] (between treatment groups) is on record as “no significant differences in adverse event reporting between treatment groups”. Moreover, the “patients surpassing corrected-serum calcium and phosphorus product safety threshold” value in data set [5] (both had high serum phosphorus at baseline) was “two”. The “serious adverse events (SAEs) related to drug” value in data set [5] (judged by investigators) is on record as “No serious adverse events (SAEs) were judged by the investigators to be related to DP001”. Further, in the data set with PTH [6], the “change in serum calcium” value is recorded as “without changing serum calcium” and the “suppression of PTH (plasma iPTH)” value is listed as “suppresses PTH in dialysis patients in a dose-dependent fashion”.

For `C=C1/C(=C\C=C2/CCC[C@]3(C)[C@@H]([C@H](C)CCCC(C)(C)O)CC[C@@H]23)C[C@@H](O)C[C@@H]1O` [calcitriol, 1α,25-(OH)2D3], in data set [7] (accompanying calcitriol treatment), the hypercalcemia result was “severe hypercalcemia always accompanied this treatment”. Further, in data set [7] (calcitriol administered through the diet), the proteinuria entry is listed as “completely prevents proteinuria”.

Values taken from US9814736B2, “Use of 2-methylene-19-nor-(20S)-1α,25-dihydroxyvitamin D3 and calcimimetics to treat secondary hyperparathyroidism” (Wisconsin Alumni Research Foundation, priority 2014, dated 2017).
